Measured values taken from patent publication US6495699B2, “Metalloproteinase inhibitors, pharmaceutical compositions containing them, and their use” (Agouron Pharmaceuticals Inc., priority 1996, dated 2002).

Experiments:
[1] = molecular target: T1, human collagenase-3 (Coll3) (Homo sapiens, UniProt P45452); assay: Fluorometric MCA-peptide hydrolysis assay, collagenase-3 (Coll3); assay type: biochemical; details: apparent Ki; 10 μM MCA peptide substrate, 37° C., pH 7.5; read-out: Coll3 (Ki,app)
T1 construct: the catalytic domain was liberated by treatment with 2 mM APMA at room temperature overnight; ubiquitin (N, cleaved yes); made in house; host or cells: E. coli

LogP = assay type: physicochemical
[2] = molecular target: T2, human progelatinase A (GelA), catalytic and fibronectin-like portion (Homo sapiens, UniProt P08253); assay: Fluorometric MCA-peptide hydrolysis assay, gelatinase A (GelA); assay type: biochemical; details: apparent Ki; 10 μM MCA peptide substrate, 37° C., pH 7.5
T2 construct: The catalytic and fibronectin-like portion of human progelatinase A (GelA) was expressed as a fusion protein with ubiquitin; ubiquitin; made in house; host or cells: E. coli
Procedure, shortened: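 E. coli-expressed ubiquitin fusion of human proGelA catalytic plus fibronectin-like domains, autoactivated; 10 μM MCA-Pro-Leu-Gly-Leu-DPA-Ala-Arg-NH2, pH 7.5 Tricine/NaCl/CaCl2/Zn buffer, 2% DMSO, 37° C, 60 min. Fluorescence 328/393 nm; steady-state rates fitted to competitive inhibition or Morrison tight-binding equation giving Ki,app (≈Ki since [S]<<Km).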

[3] = molecular target: T3, catalytic domain of human stromelysin (Hsln) (Homo sapiens, UniProt P08254); assay: Fluorometric MCA-peptide hydrolysis assay, stromelysin (Hsln); assay type: biochemical; details: apparent Ki; 10 μM MCA peptide substrate, 37° C., pH 7.5; read-out: Hsln (Ki,app)
T3 construct: The catalytic domain of human stromelysin (Hsln) was obtained by expression and purification of a C-terminally truncated prostromelysin-1; made in house; host or cells: E. coli BL21
Procedure, shortened: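 APMA-activated E. coli–expressed catalytic domain, with 10 μM MCA-Pro-Leu-Gly-Leu-DPA-Ala-Arg-NH2 at 37 °C. Buffer was pH 7.5 Tricine with NaCl, CaCl2, zinc acetate and 2% final DMSO; fluorescence read at ex 328/em 393 nm over 60 min. Ki,app from steady-state rates fitted to competitive or Morrison tight-binding equations.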

Human matrilysin (Matr) = molecular target: T4, Human matrilysin (Matr) (Homo sapiens, UniProt P09237); assay: Fluorometric MCA-peptide hydrolysis assay, matrilysin (Matr); assay type: biochemical; details: apparent Ki; 10 μM MCA peptide substrate, 37° C., pH 7.5; read-out: Matr (Ki,app)
T4 construct: the catalytic domain was liberated by treatment with 2 mM APMA at 37° C. for 2 hours; ubiquitin (cleaved yes); made in house; host or cells: E. coli
T4 sequence (P09237 95-267): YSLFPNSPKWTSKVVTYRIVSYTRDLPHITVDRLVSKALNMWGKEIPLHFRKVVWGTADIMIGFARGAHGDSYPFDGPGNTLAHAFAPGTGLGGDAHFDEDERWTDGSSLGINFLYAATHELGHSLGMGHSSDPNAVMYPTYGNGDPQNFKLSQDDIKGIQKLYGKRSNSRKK
Procedure, shortened: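 Catalytic domain of E. coli-expressed human matrilysin assayed at 37° C, pH 7.5 Tricine buffer, 2% DMSO, with 10 μM MCA-Pro-Leu-Gly-Leu-DPA-Ala-Arg-NH2; fluorescence ex 328/em 393 nm over 60 min. Ki,app from steady-state rates fitted to competitive inhibition or Morrison tight-binding equation.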

[4] = Determination of inhibitor concentration in plasma after oral dosing; assay type: in vivo, Sprague Dawley rats; details: Sprague-Dawley, rat plasma, dose 50 mg/kg, vehicle A (molar equivalent of HCl in water)
Protocol: The dosing solution consisted of the inhibitor dissolved in either a molar equivalent of HCl in water (vehicle A), in 60% aq. propylene glycol (vehicle B), or in 2.8 mg/mL sodium bicarbonate in 60% aqueous propylene glycol (vehicle C), yielding a final concentration that ranged from 10-15 mg/ml. Sprague Dawley rats (Hilltop Lab Animals, Scottsdale, Pa.) were dosed as a function of drug weight per body weight, usually 50 mgper kg. Blood was taken from the rats and centrifuged, and the plasma was stored in the freezer. Drug was extracted from a 50 μl plasma aliquot by adding 1 ml of acetonitrile, shaking for 2 minutes, centrifuging for 15 minutes at 4000 rpm, collecting the supernatant, and then evaporating it to dryness under a stream of nitrogen. The samples were reconstituted with 130 μl of mobile phase, shook for 2 minutes, and centrifuged for 15 minutes at 4000 rpm. The supernatant was collected and the samples were analyzed by injecting 100 μl of supernatant onto HPLC.
Quantitation of drug levels was accomplished by generating a standard curve of known drug amounts that were extracted from added plasma. Drug levels were plotted as a function of time and analyzed to provide area under the curve (AUC) and maximum concentration (Cmax) values.

[5] = molecular target: T5, fibroblast collagenase-1 catalytic domain (HFC) (Homo sapiens, UniProt P03956); assay: Fluorometric MCA-peptide hydrolysis assay, fibroblast collagenase-1 (HFC); assay type: biochemical; details: apparent Ki; 10 μM MCA peptide substrate, 37° C., pH 7.5; read-out: HFC (Ki,app)
T5 construct: The catalytic domain of human collagenase-1 was expressed as a fusion protein with ubiquitin in E. coli; ubiquitin (cleaved yes); made in house; host or cells: E. coli
T5 sequence (P03956 100-269 limits assumed): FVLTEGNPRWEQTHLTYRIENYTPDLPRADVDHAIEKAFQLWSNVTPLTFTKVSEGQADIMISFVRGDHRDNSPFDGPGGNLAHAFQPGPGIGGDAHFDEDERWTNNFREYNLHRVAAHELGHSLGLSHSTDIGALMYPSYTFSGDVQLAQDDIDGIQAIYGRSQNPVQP
Protocol: The catalytic domain of human collagenase-1 was expressed as a fusion protein with ubiquitin in E. coli (see Gehring, E. R., J Biol. Chem., 1995, 270, 22507). After purification of the fusion protein, the fibroblast collagenase-1 catalytic domain (HFC) was released either by treatment with purified, active stromelysin-1 (1:50 w/w ratio), which generated nearly 100% N-terminal Phe1, or by autoprocessing the concentrated collagenase-1 fusion and then incubating at 37° C. for 1 hour. Final purification was completed using zinc chelate chromatography.
Assays were performed in assay buffer (50 mM Tricine pH 7.5, 200 mM sodium chloride, 10 mM calcium chloride, 0.5 mM zinc acetate containing 2% dimethyl sulfoxide (DMSO)) once the substrate and inhibitor were diluted into it. Stock solutions of inhibitors were prepared in 100% DMSO. Stock solutions of the substrate were prepared in 100% DMSO at a concentration of 6 mM.
The assay method was based on the hydrolysis of MCA-Pro-Leu-Gly-Leu-DPA-Ala-Arg-NH2 (American Peptide Co.) at 37° C. (see Knight, C. G. et al., FEBS, 1992, 296, 263-266). The fluorescence changes were monitored with a Perkin-Elmer LS-50B fluorimeter using an excitation wavelength of 328 nm and an emission wavelength of 393 nm. The substrate concentration used in the assays was 10 μM. The inhibitor was diluted into the assays from a solution in 100% DMSO, and controls substituted an equal volume of DMSO so that the final DMSO concentration from inhibitor and substrate dilution in all assays was 2%. […] Proper determination of steady-state rates of substrate cleavage required assay lengths of 60 minutes to allow for complete equilibration of the enzyme-inhibitor complex.
The Km for the MCA peptide substrate with the matrix metalloproteinases is quite high and exceeds its solubility under assay conditions. Consequently, the apparent Ki (Ki,app) was determined to describe the strength of inhibition. However, in this case, Ki,app would be essentially equal to Ki since [S]<<Km. For the determination of Ki,app, the concentration of the inhibitor was varied at a constant and low concentration of substrate and the steady-state rates of fluorescence change determined. In most cases absorptive quench due to the presence of ligand was not observed. For slow-binding inhibitors, onset of inhibition curves were collected for at least 45 minutes so that equilibrium was established. Steady-state rates of fluorescence change were obtained by fitting a curve to an equation for a single exponential decay containing a linear phase. The fitted value of the linear phase was taken as the steady-state rate. The steady-state rates were fitted to the Michaelis equation describing competitive inhibition by non-linear methods. Data resulting from tight-binding inhibition was analyzed, and Ki,app determined by fitting the data to the tight-binding equation of Morrison (Biochem. Biophys. Acta, vol. 185, pp. 269-286 (1969)) by non-linear methods.

T2 sequence (P08253 110-465 limits assumed): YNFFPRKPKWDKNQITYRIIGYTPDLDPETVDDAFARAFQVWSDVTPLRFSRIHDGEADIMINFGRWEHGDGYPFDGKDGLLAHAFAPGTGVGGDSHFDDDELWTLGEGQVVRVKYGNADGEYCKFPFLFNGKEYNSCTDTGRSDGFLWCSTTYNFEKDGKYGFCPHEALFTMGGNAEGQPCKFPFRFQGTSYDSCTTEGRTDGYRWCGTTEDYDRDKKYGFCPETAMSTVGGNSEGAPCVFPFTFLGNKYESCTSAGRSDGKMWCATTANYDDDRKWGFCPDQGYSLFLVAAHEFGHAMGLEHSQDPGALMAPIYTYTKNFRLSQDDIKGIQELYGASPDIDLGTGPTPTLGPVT
T3 sequence (P08254 100-272 limits assumed): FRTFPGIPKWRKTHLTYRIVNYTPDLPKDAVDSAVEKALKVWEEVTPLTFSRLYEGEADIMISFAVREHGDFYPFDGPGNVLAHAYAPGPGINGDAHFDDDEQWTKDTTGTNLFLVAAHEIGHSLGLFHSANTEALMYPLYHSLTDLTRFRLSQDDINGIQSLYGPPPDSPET

Row | Compound | Ki [1] | logP (LogP) | GelA (Ki,app) [2] | Ki [3] | Ki (Human matrilysin (Matr)) | AUC [4] | Cmax [4] | melting point | Ki [5]
1 | CNC(=O)[C@@H](NC(=O)[C@@H](CC(=O)O)n1ccc(-c2ccccc2)c1)C(C)(C)C [1(b), N-[2,2-Dimethyl-1(S)-(methylcarbamoyl)propyl]-3(R)-(3-phenyl-1H-pyrrol-1-yl)succinamic acid] | 18.3 nM | -0.83 | 5.91 nM | 2000 nM | – | – | – | – | –
2 | O=C(O)C[C@H](C(=O)N[C@H]1Cc2cn(c3ccccc23)CCOCCNC1=O)n1ccc(-c2ccccc2)c1 [Example 1(c), N-(8-Oxo-4-oxa-1,7-diazatricyclo[9.6.1.0^12,17]octadeca-11(18), 12,14,16-tetraen-9(S)-yl)-3(R)-(3-phenyl-1H-pyrrol-1-yl)succinamic Acid] | 0.868 nM | -0.97 | 2 nM | 486 nM | 16900 nM | – | – | – | –
3 | CNC(=O)[C@@H](NC(=O)[C@@H](CC(=O)O)n1ccc(-c2ccc(-c3ccccc3)cc2)c1)C(C)(C)C [Example 1(e), 3(R)-[3-(Biphenyl-4-yl)-1H-pyrrol-1-yl]-N-[2,2-dimethyl-1(S)-(methylcarbamoyl)propyl]succinamic Acid] | 0.9 nM | 1.19 | 0.108 nM | 3.1 nM | 500 nM | – | – | – | –
4 | CC(C)(C)[C@@H](CO)NC(=O)[C@@H](CC(=O)O)n1ccc(-c2ccc(-c3ccncc3)cc2)c1 [Example 5(a), N-[2,2-Dimethyl-1(S)-(hydroxymethyl)propyl]-3(R)-[3-[4-(pyridin-4-yl)phenyl]-1H-pyrrol-1-yl]succinamic Acid] | 1.8 nM | 0.11 | 1.6 nM | 84 nM | – | 3520 ng·h/mL | 1600 ng/mL | 192 to 194 °C | –
5 | CNC(=O)[C@@H](NC(=O)[C@@H](CC(=O)O)n1ccc(-c2ccc(-c3ccc(C(N)=O)cc3)cc2)c1)C(C)(C)C [Example 5(e), 3(R)-[3-(4′-Carbamoylbiphenyl-4-yl)-1H-pyrrol-1-yl]-N-(2,2-dimethyl-1(S)-(methylcarbamoyl)propyl)succinamic Acid] | 0.076 nM | 1.71 | 0.109 nM | 1.7 nM | 182 nM | – | – | – | 530 nM
6 | CC(C)(C)[C@H](NC(=O)[C@@H](CC(=O)O)n1ccc(-c2ccc(-c3ccc(C(N)=O)cc3)cc2)c1)C(=O)Nc1ccncc1 [Example 5(f), 3(R)-[3-(4′-Carbamoylbiphenyl-4-yl)-1H-pyrrol-1-yl]-N-[2,2-dimethyl-1(S)-(N-(pyridin-4-yl)carbamoyl)propyl]succinamic Acid] | 0.012 nM | 2.56 | 0.023 nM | 0.46 nM | 2.1 nM | – | – | 194 to 196 °C | 818 nM
